The source made the active and inactive calls.
Assays:
[1] = biological target: Intestinal-type alkaline phosphatase (Mus musculus, UniProt P24822); assay: PubChem AID 488785; type: functional
[2] = biological target: Alkaline phosphatase, placental type (Homo sapiens, UniProt P05187); assay: human placental alkaline phosphatase inhibition – biochemical, luminescence, confirmation (AID 1512); type: functional
[3] = biological target: Intestinal-type alkaline phosphatase (Homo sapiens, UniProt P09923); assay: inhibition of human intestinal alkaline phosphatase – biochemical, dose response (AID 488876); type: functional
Ephrin type-A receptor 4 = Ephrin type-A receptor 4 (Mus musculus, UniProt Q03137); assay: EphA4 ligand-binding antagonists – biochemical, colorimetric, mouse EphA4, primary screen (AID 689); type: functional
[4] = biological target: G-protein coupled receptor 55 (Homo sapiens, UniProt Q9Y2T6); assay: selective activators of receptor GPR55 – imaging, U2OS cells, beta-arrestin-GFP redistribution, primary screen (AID 1961); type: functional
G-protein coupled receptor 55, sequence (Q9Y2T6 whole entry): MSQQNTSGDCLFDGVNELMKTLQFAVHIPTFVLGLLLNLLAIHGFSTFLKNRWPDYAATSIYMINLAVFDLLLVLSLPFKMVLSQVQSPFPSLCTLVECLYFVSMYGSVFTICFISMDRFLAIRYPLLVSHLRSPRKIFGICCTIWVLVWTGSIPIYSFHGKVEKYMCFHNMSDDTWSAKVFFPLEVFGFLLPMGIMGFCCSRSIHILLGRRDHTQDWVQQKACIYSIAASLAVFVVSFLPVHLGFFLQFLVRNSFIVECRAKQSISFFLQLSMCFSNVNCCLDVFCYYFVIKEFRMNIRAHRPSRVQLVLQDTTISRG

NADPH oxidase 1 [5] = biological target: T1, NADPH oxidase 1 (Homo sapiens, UniProt Q9Y5S8); type: functional, cell-based;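 note: Cell-based assay with luminescence read-out, IC50 derived from inhibitor dose-response curves; intracellular ROS from endogenous NOX1 in intact HT29 colon cancer cells; potency of inhibitors that lower the ROS luminescence signal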
T1 sequence (Q9Y5S8 whole entry): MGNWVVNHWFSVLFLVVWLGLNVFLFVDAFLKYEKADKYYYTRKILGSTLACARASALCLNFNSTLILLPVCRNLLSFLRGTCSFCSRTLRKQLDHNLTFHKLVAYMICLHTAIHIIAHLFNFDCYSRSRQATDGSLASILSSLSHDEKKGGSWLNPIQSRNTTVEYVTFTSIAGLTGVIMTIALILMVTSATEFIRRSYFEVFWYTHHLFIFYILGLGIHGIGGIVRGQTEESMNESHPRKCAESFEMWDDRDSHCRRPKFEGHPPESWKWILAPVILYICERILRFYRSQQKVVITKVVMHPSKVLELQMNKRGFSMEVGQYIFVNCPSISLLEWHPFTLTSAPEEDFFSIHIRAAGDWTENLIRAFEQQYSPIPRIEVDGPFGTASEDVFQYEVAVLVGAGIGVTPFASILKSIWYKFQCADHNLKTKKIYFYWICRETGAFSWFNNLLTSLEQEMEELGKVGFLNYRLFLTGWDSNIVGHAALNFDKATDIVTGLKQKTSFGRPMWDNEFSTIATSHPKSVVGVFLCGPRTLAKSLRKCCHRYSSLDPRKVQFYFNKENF

NADPH oxidase 1 [6] = biological target: T1, NADPH oxidase 1; assay: HEK293 ROS counter-screen potency – cell-based, IC50, set 2, counter-screen for NOX1 inhibitor project, late-stage follow-up (AID 435002); type: functional
NADPH oxidase 3 = NADPH oxidase 3 (Homo sapiens, UniProt Q9HBY0); assay: PubChem AID 435013
NADPH oxidase 2 = NADPH oxidase 2 (Homo sapiens, UniProt P04839); assay: PubChem AID 435013
Mu-type opioid receptor = Mu-type opioid receptor (Homo sapiens, UniProt P35372); assay: SAR Analysis of Antagonists of the MOR Receptor using an Image-Based Assay - Set 3. [Related pubchem assays (depositor defined):AID1777, AID1785, AID1786, AID1966, AID2133, AID2136, AID2284, AID2285, AID2420]; type: functional
Mu-type opioid receptor, sequence (P35372 whole entry): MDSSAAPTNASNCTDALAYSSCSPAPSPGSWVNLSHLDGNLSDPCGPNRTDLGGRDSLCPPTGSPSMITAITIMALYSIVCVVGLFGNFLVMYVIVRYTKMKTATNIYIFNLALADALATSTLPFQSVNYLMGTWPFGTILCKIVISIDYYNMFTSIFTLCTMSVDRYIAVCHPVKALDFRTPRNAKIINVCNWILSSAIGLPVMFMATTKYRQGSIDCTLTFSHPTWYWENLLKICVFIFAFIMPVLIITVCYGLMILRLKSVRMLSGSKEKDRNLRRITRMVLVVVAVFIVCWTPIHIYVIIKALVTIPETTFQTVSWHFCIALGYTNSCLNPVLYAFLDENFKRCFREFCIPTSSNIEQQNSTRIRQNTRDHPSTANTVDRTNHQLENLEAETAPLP

[7] = biological target: Delta-type opioid receptor (Homo sapiens, UniProt P41143); assay: SAR Analysis of Antagonists of the DOR Receptor using an Image-Based Assay - Set 3. [Related pubchem assays (depositor defined):AID1777, AID1785]; type: functional;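 note: U2OS cells expressing DOR1 and beta-arrestin GFP stimulated with 100 nM SNC80; imaging of GFP-tagged beta-arrestin moving into spots after receptor activation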
Delta-type opioid receptor, sequence (P41143 whole entry): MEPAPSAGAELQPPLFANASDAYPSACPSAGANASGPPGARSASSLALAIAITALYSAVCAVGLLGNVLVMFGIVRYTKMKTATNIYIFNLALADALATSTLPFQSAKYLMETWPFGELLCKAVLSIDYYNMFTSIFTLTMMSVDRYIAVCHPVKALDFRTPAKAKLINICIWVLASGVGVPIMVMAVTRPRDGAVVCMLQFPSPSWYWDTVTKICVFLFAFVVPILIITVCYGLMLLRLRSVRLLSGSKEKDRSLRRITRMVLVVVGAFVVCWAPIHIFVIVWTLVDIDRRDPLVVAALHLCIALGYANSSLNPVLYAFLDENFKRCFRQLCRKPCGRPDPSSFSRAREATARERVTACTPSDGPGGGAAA

[8] = biological target: T2, Kappa-type opioid receptor (Homo sapiens, UniProt P41145); assay: SAR analysis of small molecule antagonists of the kappa opioid receptor via a luminescent beta-arrestin assay - Set 3. [Related pubchem assays (depositor defined):AID1777, AID1778, AID1785, AID1786, AID1966, AID2133, AID2136, AID2285, AID2495]; type: functional
T2 sequence (P41145 whole entry): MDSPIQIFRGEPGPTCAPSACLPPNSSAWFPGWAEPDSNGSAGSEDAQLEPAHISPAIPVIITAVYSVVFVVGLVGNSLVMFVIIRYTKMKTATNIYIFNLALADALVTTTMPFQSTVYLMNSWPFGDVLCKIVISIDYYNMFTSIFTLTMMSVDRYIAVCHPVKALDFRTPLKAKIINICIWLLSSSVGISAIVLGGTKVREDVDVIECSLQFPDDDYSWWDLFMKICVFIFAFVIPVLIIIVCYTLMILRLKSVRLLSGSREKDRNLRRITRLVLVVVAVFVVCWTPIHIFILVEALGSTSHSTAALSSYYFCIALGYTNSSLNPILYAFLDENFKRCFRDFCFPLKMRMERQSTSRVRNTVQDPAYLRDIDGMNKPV

[9] = biological target: T2, Kappa-type opioid receptor; assay: SAR analysis of Antagonists of the Kappa Opioid Receptor (KOR) using an Image-Based Assay - Set 4. [Related pubchem assays (depositor defined):AID1777, AID1785]; type: functional
Troponin, cardiac muscle [10] = biological target: T3, Troponin, cardiac muscle (Homo sapiens, UniProt P19429+P45379+P63316); assay: Fluorescence-based biochemical high throughput dose response assay for activators of the calcium sensitivity of cardiac Regulated Thin Filaments (RTF). [Related pubchem assays (depositor defined):AID493008, AID493018, AID504382, AID504383]; type: protein-complex assay
[11] = biological target: T4, RNA-binding protein pos-1 (Caenorhabditis elegans, UniProt G5EF15); assay: disruptors of C. elegans POS-1 RNA interaction – biochemical, fluorescence polarization, dose response (AID 1964);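 note: purified POS-1 fused to maltose binding protein made in E. coli; potency of compounds blocking POS-1 binding to fluorescent RNA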
T4 sequence (G5EF15 whole entry): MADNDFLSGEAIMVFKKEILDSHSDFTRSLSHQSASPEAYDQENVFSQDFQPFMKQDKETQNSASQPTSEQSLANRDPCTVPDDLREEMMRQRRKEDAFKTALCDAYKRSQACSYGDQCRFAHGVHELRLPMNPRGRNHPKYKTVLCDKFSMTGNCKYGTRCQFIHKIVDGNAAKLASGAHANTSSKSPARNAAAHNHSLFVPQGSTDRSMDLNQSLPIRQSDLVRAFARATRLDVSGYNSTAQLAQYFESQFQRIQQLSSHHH

[12] = biological target: T5, Zinc finger protein mex-5 (Caenorhabditis elegans, UniProt Q9XUB2); assay: potency of MEX-5 RNA-binding blockers – biochemical, C. elegans, fluorescence polarization, dose response (AID 1960)
T5 sequence (Q9XUB2 whole entry): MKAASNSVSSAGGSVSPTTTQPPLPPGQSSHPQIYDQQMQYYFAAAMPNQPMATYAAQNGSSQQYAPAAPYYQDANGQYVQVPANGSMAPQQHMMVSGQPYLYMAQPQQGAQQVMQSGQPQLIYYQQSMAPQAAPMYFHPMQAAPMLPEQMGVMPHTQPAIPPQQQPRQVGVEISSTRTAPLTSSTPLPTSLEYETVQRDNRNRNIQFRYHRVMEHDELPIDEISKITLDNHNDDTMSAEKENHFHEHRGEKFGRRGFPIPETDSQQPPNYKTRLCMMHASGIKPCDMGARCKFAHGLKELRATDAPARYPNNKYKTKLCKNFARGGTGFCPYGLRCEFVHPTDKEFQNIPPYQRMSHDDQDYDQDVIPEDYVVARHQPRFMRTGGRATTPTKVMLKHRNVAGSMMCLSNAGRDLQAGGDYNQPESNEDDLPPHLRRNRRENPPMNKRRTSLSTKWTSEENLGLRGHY

Troponin, cardiac muscle [13] = biological target: T3, Troponin, cardiac muscle; assay: compounds desensitizing RTF to calcium – biochemical, fluorescence, cardiac regulated thin filaments, triplicate IC50, dose response (AID 504742); type: protein-complex assay
[14] = biological target: Tyrosyl-DNA phosphodiesterase 2 (Homo sapiens, UniProt O95551); assay: potency against TDP2 phosphodiesterase activity – biochemical, epi absorbance, IC50, dose response (AID 743297)
Tyrosyl-DNA phosphodiesterase 2, sequence (O95551 whole entry, the tested form may be a part): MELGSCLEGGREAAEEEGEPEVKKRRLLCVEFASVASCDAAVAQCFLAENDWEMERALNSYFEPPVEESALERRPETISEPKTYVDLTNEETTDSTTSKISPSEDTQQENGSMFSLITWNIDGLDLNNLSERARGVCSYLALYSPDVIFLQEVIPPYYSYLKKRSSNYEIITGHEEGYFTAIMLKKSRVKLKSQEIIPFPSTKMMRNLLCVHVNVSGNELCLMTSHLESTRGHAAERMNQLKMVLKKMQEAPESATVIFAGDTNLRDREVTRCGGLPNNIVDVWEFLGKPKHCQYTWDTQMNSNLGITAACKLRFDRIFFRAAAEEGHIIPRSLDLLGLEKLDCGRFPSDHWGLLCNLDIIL

[15] = biological target: Disintegrin and metalloproteinase domain-containing protein 17 (Homo sapiens, UniProt P78536); assay: exosite inhibitors of ADAM17, dose response, biochemical (AID 743260)
[16] = biological target: 1-phosphatidylinositol 4,5-bisphosphate phosphodiesterase gamma-1 (Homo sapiens, UniProt P19174); assay: Counterscreen for inhibitors of phospholipase C isozymes (PLC-B3): Fluorescence-based biochemical high throughput dose response assay to identify inhibitors of phospholipase C isozymes (PLC-gamma1).
1-phosphatidylinositol 4,5-bisphosphate phosphodiesterase gamma-1, sequence (P19174 whole entry): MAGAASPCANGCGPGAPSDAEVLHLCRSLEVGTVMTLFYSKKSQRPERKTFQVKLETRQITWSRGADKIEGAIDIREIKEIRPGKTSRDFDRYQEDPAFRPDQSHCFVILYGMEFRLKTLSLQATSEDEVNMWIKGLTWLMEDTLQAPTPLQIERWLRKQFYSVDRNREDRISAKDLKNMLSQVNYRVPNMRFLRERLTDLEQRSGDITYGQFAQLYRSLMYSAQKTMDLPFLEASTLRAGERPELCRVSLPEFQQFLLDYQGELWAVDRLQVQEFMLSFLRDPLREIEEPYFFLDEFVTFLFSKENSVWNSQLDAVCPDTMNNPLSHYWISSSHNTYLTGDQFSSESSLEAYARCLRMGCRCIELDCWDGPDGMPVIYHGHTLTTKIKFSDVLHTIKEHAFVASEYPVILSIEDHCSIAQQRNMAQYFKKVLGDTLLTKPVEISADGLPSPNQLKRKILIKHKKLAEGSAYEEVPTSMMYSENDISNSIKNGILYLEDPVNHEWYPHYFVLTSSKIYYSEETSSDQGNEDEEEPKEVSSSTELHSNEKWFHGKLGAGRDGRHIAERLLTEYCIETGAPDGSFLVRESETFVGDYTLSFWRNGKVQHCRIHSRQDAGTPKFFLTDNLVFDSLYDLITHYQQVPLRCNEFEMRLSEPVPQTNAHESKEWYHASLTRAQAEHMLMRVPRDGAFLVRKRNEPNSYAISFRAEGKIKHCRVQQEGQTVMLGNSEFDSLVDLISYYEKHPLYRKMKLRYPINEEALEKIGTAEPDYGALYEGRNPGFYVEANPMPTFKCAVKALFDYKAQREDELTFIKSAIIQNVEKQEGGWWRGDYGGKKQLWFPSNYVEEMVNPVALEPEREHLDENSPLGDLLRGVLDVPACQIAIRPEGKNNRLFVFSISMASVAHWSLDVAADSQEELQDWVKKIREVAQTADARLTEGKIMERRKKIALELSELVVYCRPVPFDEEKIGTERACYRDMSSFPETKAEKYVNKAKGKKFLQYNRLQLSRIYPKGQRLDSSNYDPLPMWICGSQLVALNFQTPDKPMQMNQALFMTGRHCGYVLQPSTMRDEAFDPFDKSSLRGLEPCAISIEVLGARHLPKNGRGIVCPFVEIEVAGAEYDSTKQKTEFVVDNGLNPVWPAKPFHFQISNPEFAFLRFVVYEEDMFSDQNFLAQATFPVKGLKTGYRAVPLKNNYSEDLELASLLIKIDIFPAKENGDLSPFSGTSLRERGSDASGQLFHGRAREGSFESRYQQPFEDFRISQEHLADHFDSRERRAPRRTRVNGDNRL

[17] = biological target: 1-phosphatidylinositol 4,5-bisphosphate phosphodiesterase beta-3 (Homo sapiens, UniProt Q01970); assay: Fluorescence-based biochemical high throughput dose response assay to identify inhibitors of phospholipase C isozymes (PLC-B3).
1-phosphatidylinositol 4,5-bisphosphate phosphodiesterase beta-3, sequence (Q01970 whole entry): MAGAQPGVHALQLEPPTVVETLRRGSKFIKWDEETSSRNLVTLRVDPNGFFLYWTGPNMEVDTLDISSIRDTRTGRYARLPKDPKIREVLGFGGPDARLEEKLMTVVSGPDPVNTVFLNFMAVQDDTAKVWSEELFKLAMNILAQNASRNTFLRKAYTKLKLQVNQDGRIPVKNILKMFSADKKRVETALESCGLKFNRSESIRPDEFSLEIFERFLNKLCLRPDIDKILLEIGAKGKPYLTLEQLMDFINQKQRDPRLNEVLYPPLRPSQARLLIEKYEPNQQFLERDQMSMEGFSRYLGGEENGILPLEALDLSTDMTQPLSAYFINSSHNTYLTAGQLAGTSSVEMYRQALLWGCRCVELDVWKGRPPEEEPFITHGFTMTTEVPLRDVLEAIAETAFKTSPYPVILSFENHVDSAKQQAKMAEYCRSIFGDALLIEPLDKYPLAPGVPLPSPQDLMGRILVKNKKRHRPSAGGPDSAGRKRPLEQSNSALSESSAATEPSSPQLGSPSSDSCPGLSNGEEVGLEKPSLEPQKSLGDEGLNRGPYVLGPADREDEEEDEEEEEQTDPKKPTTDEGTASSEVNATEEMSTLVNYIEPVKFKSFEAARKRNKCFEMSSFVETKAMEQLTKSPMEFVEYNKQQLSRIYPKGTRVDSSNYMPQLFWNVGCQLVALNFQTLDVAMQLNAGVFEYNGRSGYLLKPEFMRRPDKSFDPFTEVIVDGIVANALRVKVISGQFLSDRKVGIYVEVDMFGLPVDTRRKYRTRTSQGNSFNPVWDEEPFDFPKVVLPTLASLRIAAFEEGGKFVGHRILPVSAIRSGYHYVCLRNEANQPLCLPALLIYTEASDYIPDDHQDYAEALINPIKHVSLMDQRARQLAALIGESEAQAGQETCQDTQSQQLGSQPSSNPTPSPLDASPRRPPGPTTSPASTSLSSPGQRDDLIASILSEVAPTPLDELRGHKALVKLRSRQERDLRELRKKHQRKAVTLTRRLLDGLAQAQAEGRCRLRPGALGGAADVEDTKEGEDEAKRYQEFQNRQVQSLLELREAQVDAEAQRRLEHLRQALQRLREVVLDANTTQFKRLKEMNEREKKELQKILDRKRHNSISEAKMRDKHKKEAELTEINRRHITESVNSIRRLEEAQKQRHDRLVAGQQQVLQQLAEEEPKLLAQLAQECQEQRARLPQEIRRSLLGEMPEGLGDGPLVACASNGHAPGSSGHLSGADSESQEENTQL

[18] = inhibition of ADAM10 peptide cleavage – biochemical, FRET peptide substrate, recombinant human ADAM10, selectivity assay for ADAM17 exosite inhibitor project, dose response (AID 743259);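 note: ADAM10 enzyme cleaving a FRET peptide substrate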
BJ [19] = assay: BJ-TERT fibroblast viability loss – cell-based, RAS-independent, luminescence, dose response (AID 1933); type: functional; details: Homo sapiens
[20] = biological target: T6, Heat shock factor protein 1 (Mus musculus, UniProt P38532); assay: decrease of HSF1-responsive luciferase luminescence – cell-based, NIH3T3, dose retest, confirmation (AID 2382); type: functional;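 note: NIH3T3 fibroblasts with HSF1-driven luciferase reporter stressed by proteasome inhibitor MG132; luminescence from HSF1-driven luciferase expression after 8 hours of MG132 stress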
T6 sequence (P38532 whole entry): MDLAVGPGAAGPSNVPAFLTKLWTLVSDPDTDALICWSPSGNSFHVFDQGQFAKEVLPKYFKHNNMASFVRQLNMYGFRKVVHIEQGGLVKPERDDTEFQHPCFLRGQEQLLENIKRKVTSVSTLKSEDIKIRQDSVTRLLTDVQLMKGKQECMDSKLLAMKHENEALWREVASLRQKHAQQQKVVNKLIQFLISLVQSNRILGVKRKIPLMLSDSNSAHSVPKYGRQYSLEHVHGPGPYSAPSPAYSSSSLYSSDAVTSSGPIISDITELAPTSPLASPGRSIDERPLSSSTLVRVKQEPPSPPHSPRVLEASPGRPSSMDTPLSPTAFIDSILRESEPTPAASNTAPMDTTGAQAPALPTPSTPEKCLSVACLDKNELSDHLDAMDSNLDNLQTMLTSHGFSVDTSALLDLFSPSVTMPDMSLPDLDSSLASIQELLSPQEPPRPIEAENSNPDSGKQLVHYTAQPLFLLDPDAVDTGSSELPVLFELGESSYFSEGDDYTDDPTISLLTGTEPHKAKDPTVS

BJ [21] = assay: cells; type: functional, cell-based; details: Homo sapiens
BJ [22] = assay: BJ-TERT-LT-ST fibroblast viability loss – cell-based, RAS-independent, luminescence, dose response (AID 1935); type: functional; details: Homo sapiens;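 note: BJ fibroblasts immortalized with TERT plus LT and ST oncogenes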
[23] = DRD fibroblast viability loss – cell-based, non-viral oncogenic, luminescence, dose response (AID 1934); type: functional; details: Homo sapiens
Bcl-2-related protein A1 = biological target: T7, Bcl-2-related protein A1 (Mus musculus, UniProt Q07440); type: functional;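 note: confirmatory dose–response counterscreen on Bfl-1, used to check hits from a UBC13 polyubiquitin inhibitor campaign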
T7 sequence (Q07440 whole entry): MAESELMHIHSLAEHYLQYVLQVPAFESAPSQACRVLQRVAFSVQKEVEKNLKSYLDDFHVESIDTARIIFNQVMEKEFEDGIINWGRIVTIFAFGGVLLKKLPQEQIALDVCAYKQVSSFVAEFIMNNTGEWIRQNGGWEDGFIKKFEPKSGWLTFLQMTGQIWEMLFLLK

[24] = biological target: T8, Ubiquitin-conjugating enzyme E2 N (Homo sapiens, UniProt P61088); type: functional
T8 sequence (P61088 whole entry): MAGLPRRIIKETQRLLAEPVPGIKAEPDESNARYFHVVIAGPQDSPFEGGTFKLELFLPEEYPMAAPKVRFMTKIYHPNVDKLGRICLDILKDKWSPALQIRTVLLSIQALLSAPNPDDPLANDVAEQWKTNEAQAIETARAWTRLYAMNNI

[25] = biological target: T8, Ubiquitin-conjugating enzyme E2 N; type: functional; remark: listed apart in the source
[26] = biological target: T9, Type-1 angiotensin II receptor (Homo sapiens, UniProt P30556); assay: agonist activity at AGTR1 – cell-based, uHTS hits, selectivity assay for APJ receptor agonist project, dose response (AID 488865); type: functional;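 note: beta-arrestin recruitment to AT1 measured by enzyme fragment complementation luminescence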
T9 sequence (P30556 whole entry): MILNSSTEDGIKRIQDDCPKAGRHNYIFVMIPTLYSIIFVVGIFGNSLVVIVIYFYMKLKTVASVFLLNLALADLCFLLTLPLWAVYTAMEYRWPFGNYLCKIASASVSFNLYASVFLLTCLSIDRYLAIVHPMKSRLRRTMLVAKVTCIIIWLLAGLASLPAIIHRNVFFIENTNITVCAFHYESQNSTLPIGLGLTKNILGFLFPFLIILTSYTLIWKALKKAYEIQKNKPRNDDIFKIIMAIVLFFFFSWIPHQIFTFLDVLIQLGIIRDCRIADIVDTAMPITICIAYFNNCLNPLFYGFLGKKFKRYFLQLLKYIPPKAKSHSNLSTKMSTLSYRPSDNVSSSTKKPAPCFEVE

BJ [27] = assay: growth inhibition of engineered Ras-driven BJ cells – cell-based, alamar blue fluorescence, cherrypicked samples, dose response (AID 2631); type: functional; details: Homo sapiens;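 note: confirmatory dose-response assay in RAS-dependent BJ fibroblasts engineered with TERT, LT and ST, with cytotoxicity read by fluorescence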
INS1 = assay: INS-1E survival protection against cytokine death – cell-based, luminescence, retest, dose response (AID 449756); type: functional; details: Rattus norvegicus;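 note: cell death triggered by IL-1 beta plus TNF-alpha plus IFN-gamma mixture; protective hits raise ATP signal compared with cytokine alone wells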

Alkaline phosphatase, placental type, sequence (P05187 whole entry): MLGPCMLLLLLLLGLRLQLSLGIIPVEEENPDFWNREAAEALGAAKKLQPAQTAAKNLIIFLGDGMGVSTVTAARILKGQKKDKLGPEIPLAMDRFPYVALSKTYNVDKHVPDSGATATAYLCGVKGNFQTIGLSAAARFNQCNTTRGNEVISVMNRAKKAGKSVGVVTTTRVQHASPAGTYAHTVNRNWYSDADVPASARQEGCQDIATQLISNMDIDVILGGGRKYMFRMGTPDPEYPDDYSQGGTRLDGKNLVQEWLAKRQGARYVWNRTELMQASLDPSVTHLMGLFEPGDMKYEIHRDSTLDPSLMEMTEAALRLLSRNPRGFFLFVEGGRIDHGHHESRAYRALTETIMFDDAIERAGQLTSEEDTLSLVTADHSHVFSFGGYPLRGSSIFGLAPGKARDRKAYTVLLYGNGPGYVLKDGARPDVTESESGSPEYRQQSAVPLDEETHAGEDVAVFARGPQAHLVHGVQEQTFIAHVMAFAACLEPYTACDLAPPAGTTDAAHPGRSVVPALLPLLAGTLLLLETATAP

C=C(C)c1cccc(C(C)(C)NC(=O)NC(c2ccccc2)c2ccc(OC)cc2)c1 (stereo not drawn)
IC50 [1]: 7.54 µM (active)
IC50 [2]: > 100 µM (inactive)
IC50 [3]: 9.59 µM (active)

CCCCN1C(=O)/C(=C/C=C2\N(C)c3ccccc3C2(C)C)SC1=S
IC50 (Ephrin type-A receptor 4): 5.34 µM (active)
EC50 [4]: 0.731 µM (active)

Oc1c(Br)cc(/C=N/Nc2c(Cl)cncc2Cl)cc1Br
IC50 (NADPH oxidase 1 [5]): 0.43 µM (active)
IC50 (NADPH oxidase 1 [6]): 10 µM (active)
IC50 (NADPH oxidase 3): > 50 µM (inactive)
IC50 (NADPH oxidase 2): > 50 µM (inactive)

O=C(Cn1c(=O)c2cccn2c2cccnc21)NCCCN1CCN(c2ccc3c(c2)OCO3)CC1
IC50 (Mu-type opioid receptor): > 32 µM (inactive)
IC50 [7]: > 32 µM (inactive)
IC50 [8]: 4.23 µM (active)
IC50 [9]: 0.776 µM (active)

Cc1nnc(SCC(=O)NC(C)(C)C)n1C1CCCCC1
EC50 (Troponin, cardiac muscle [10]): > 71.5 µM (inactive)

O=C(O)c1cc(O)c2c(c1)[C@H]([C@H]1c3cc(C(=O)O)cc(O)c3C(=O)c3c(O[C@@H]4O[C@H](CO)[C@@H](O)[C@H](O)[C@H]4O)cccc31)c1cccc(OC3O[C@H](CO)[C@@H](O)[C@H](O)[C@H]3O)c1C2=O (stereo partly drawn)
EC50 [11]: > 300 µM (not active)
EC50 [12]: 7.25 µM (active)
IC50 (Troponin, cardiac muscle [13]): 2.72 µM (active)
IC50 [14]: > 128 µM (inactive)
IC50 [15]: 30.4 µM (inactive)
IC50 [16]: 18.8 µM (inactive)
IC50 [17]: 109 µM (inactive)
IC50 [18]: > 23.2 µM (inactive)

COc1ccc(OC)c2sc(N(CCCN(C)C)C(=O)c3ccc(S(=O)(=O)N4CCc5ccccc5C4)cc3)nc12
EC50 (BJ [19]): 0.357 µM (inconclusive)
EC50 [20]: 5.01 µM (active)
EC50 (BJ [21]): 2.43 µM (active)
EC50 (BJ [22]): 0.432 µM (inconclusive)
EC50 [23]: 1.27 µM (inconclusive)
IC50 (Bcl-2-related protein A1): 8.51 µM (active)
IC50 [24]: 2.47 µM (active)
IC50 [25]: 1.27 µM (active)
EC50 [26]: > 100 µM (inactive)
EC50 (BJ [27]): 0.289 µM (active)
AC50 (INS1): 1.75 µM (active)
